# Measurements taken from article PMC7200784, “In-vitro safety and off-target profile of the anti-parasitic arylmethylaminosteroid 1o” (Scientific Reports, 2020).
# Test system: Caco-2 cell barrier
# Test: Caco-2 cell barrier integrity (TEER and capacitance, cellZscope2)
# Format: cell-based
# Conditions: 20 h after addition, value before addition = 100%; 10 mM EGTA
# Protocol: Twenty thousand CaCo-2 cells were seeded on 24-well ThinCerts (pre-coated with FCS for 30 min). In the lower compartment (basolateral), 1 ml culture medium per well was added. As a control, half of the ThinCerts were not seeded with cells. The ThinCerts were transferred to the cellZscope2 (nanoAnalytics). Two hundred µl of medium was added to the ThinCerts to reach a final volume of 300 µl in the upper compartment (apical). The TEER and capacitance were measured every hour. After 5 days, the TEER reached a constant value of 700–900 Ohm*cm² and the medium was replaced with EMEM with 2% FCS, 2 mM L-glutamine, 1x non-essential amino acids, and 110 nM hydrocortisone. The TEER and capacitance were measured every hour for 1 day. Sc1o (0 µM, 1 µM, 10 µM, 25 µM, 50 µM) diluted in EMEM with 2% FCS, 2 mM L-glutamine, 1x non-essential amino acids, and 110 nM hydrocortisone were added to the apical compartment. As a control, 10 mM of EGTA was used. The cellZscope2 module was transferred into the incubator for 24 h, and every 30 min the TEER and capacitance were detected. TEER and capacitance values at the time point of adding the compound solution were used as references to calculate the alteration (t0h-value). […] At time point 0h and after 24 h the medium of the basolateral and apical compartment was collected and stored at −20 °C and analysed by LC-MS/MS.
compound,measurement,value
"O=C(O)CN(CCOCCOCCN(CC(=O)O)CC(=O)O)CC(=O)O [EGTA, Ethylene glycol-bis(β-aminoethyl ether)-N,N,N′,N′-tetraacetic acid]",Relative TEER,0.12 ± 0.03%
same,Relative capacitance,481 ± 168%
